Data from ChEMBL document CHEMBL5046271, “Design, Synthesis, and Biological Evaluation of 2-Formyl Tetrahydronaphthyridine Urea Derivatives as New Selective Covalently Reversible FGFR4 Inhibitors” (J Med Chem, 2022).
Calls of active or inactive are those of the source. The calls are words filed in the database; no cut-off is given here.

How the values were obtained:
[1] = system: BaF3; test: Inhibition of FGFR4 expressed in mouse BaF3-ETV6-FGFR4 cells assessed as inhibition of FRS2alpha phosphorylation by Western blot analysis; assay type: cell-based; conditions: dose 3.7-100 nM
[2] = target: MAP kinase-activated protein kinase 2 (Homo sapiens) (UniProt P49137); test: Inhibition of human MAPKAPK2 expressed in bacterial expression system at 1000 nM by KINOMEscan assay relative to control
[3] = system: Hep 3B2; test: Antiproliferative activity in human Hep 3B2.1-7 cells assessed as reduction of cell number measured after 72 hrs by CCK8 assay; assay type: functional, cell-based
[4] = target: Platelet-derived growth factor receptor beta (Homo sapiens) (UniProt P09619); test: Inhibition of human PDGFRB expressed in bacterial expression system at 1000 nM by KINOMEscan assay relative to control
[5] = AUC(0 to t) inSprague- Dawley rat at 25 mg/kg, po incubation upto 24 hrs by LC-MS/MS analysis; assay type: ADME, organism-based; parameters: route oral, dose 25 mg/kg, time <=24; conditions: Sprague-Dawley, in vivo
[6] = Cmax in Sprague-Dawley rat at 25 mg/kg, po incubation upto 24 hrs by LC-MS/MS analysis; assay type: ADME, organism-based; parameters: route oral, dose 25 mg/kg, time <=24; conditions: in vivo
[7] = Half life in Sprague- Dawley rat at 5 mg/kg, iv incubation upto 24 hrs by LC-MS/MS analysis; assay type: ADME, organism-based; conditions: in vivo
[8] = target: T1, Fibroblast growth factor receptor 1 (Homo sapiens, UniProt P11362); test: Inhibition of FGFR1 (unknown origin) using Tyr 04 peptide substrate measured after 2 hrs by FRET assay
Target sequence in this assay (P11362 whole entry): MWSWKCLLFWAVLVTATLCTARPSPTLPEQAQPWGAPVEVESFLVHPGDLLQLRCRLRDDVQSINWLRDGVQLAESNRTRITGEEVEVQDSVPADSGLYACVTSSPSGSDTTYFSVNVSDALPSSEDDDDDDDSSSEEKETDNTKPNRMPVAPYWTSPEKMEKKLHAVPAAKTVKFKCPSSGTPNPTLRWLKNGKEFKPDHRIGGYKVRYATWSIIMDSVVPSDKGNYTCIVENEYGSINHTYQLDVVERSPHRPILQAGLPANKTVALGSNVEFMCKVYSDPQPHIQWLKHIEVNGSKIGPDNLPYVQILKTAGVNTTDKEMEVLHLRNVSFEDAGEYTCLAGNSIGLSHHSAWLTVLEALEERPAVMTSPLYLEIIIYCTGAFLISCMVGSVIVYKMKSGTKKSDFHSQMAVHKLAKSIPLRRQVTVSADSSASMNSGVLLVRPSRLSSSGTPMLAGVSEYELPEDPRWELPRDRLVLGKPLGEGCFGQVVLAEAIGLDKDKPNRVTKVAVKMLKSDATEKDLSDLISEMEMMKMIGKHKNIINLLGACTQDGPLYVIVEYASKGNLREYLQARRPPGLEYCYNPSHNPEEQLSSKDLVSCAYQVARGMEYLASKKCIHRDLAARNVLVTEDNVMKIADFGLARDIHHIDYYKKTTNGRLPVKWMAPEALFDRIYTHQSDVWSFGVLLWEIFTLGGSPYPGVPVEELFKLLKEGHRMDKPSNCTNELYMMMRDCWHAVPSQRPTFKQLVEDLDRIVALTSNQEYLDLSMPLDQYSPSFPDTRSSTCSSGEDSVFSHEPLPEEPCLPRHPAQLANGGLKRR

[9] = target: T2, Dual specificity protein kinase TTK (Homo sapiens) (UniProt P33981); test: Inhibition of human TTK at 1000 nM by KINOMEscan assay relative to control
T2 sequence (whole entry): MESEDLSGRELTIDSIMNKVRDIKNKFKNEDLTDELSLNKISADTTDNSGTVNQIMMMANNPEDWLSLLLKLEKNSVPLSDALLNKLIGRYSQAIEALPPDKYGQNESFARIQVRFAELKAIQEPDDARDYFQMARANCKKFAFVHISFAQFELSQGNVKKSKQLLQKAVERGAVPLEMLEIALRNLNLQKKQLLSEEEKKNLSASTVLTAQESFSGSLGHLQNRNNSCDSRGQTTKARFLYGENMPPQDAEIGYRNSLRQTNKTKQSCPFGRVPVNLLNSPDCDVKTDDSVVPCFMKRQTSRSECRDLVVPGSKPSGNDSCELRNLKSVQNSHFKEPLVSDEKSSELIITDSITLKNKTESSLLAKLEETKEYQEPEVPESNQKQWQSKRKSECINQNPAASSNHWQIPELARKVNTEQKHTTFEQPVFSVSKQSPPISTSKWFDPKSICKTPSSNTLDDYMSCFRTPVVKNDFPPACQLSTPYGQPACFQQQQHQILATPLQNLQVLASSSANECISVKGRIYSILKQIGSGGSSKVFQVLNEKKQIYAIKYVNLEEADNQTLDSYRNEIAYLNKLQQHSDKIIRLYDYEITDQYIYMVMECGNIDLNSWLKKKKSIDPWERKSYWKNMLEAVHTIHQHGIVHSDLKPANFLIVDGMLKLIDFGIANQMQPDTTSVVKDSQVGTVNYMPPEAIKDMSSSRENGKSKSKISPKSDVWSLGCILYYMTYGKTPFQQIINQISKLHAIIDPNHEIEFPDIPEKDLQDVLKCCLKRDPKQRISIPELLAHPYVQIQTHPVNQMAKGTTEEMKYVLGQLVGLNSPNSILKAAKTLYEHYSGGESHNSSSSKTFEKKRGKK

[10] = system: Hep 3B2; test: Cytotoxicity against human Hep 3B2.1-7 cells harboring FGF19/FGFR4 assessed as inhibition of cell growth; conditions: Hep3B
[11] = target: Proto-oncogene tyrosine-protein kinase receptor Ret (Homo sapiens) (UniProt P07949); test: Inhibition of human RET expressed in bacterial expression system at 1000 nM by KINOMEscan assay relative to control
Proto-oncogene tyrosine-protein kinase receptor Ret (Homo sapiens), sequence (P07949 whole entry): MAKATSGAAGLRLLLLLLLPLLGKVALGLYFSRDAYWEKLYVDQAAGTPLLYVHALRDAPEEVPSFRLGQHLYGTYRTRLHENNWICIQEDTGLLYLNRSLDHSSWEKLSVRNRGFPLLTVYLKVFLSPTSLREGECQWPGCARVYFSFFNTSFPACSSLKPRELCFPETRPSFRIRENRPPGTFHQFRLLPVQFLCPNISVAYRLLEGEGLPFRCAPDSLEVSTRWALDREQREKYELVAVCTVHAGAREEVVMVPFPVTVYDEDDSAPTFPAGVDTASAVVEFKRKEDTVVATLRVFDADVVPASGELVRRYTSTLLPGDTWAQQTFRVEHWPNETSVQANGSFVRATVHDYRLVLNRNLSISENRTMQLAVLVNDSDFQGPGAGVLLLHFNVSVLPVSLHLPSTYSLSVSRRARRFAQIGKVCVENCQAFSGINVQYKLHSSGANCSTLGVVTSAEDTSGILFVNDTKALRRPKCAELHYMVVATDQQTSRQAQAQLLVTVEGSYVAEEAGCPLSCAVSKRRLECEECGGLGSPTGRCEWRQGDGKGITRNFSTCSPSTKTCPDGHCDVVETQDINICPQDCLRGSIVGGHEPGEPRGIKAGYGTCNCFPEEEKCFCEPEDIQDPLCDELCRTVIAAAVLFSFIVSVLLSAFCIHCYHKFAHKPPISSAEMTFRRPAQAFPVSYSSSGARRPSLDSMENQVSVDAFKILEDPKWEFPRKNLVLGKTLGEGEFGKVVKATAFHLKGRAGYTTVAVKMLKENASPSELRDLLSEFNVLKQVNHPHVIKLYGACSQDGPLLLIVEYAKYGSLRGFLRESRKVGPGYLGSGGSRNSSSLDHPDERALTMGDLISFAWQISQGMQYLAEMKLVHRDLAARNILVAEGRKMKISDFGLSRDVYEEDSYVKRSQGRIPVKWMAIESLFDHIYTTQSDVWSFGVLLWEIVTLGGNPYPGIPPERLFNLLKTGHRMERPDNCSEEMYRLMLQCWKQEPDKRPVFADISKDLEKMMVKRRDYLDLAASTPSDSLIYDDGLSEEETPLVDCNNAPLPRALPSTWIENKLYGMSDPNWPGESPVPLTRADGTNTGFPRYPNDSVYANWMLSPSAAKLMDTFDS

[12] = Oral bioavailability in Sprague- Dawley rat at 25 mg/kg incubation upto 24 hrs by LC-MS/MS analysis; assay type: ADME, organism-based; conditions: in vivo
[13] = target: T3, Fibroblast growth factor receptor 3 (Homo sapiens, UniProt P22607); test: Inhibition of FGFR3 (unknown origin) using Tyr 04 peptide substrate measured after 2 hrs by FRET assay
[14] = target: T1, Fibroblast growth factor receptor 1; test: Inhibition of human FGFR1 expressed in bacterial expression system at 1000 nM by KINOMEscan assay relative to control
Target sequence in this assay (P11362 22-822 limits assumed): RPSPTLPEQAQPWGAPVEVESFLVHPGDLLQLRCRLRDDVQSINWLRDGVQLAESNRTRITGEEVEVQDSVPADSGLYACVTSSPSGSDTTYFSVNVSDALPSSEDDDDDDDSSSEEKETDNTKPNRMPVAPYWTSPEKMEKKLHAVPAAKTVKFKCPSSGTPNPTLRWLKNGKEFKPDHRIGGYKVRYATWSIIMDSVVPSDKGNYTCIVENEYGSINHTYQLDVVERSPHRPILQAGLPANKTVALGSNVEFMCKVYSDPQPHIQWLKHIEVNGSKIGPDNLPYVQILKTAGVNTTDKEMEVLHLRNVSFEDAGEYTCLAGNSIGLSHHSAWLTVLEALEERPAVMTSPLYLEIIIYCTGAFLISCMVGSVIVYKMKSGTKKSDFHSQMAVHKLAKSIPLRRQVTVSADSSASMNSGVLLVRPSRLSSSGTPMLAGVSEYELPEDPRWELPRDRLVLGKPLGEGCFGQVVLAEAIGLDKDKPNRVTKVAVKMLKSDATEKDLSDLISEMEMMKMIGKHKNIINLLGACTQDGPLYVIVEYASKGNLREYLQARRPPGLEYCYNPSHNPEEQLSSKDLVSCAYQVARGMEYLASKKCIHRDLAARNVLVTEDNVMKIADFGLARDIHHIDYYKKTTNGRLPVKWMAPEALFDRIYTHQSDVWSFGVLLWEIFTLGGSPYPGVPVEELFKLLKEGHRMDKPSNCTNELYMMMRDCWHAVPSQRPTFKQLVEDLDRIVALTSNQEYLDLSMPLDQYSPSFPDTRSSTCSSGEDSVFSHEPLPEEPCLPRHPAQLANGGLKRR

[15] = system: Hep 3B2; test: Inhibition of colony formation in human Hep 3B2.1-7 cells incubated for 10 days by crystal violet staining based assay; assay type: functional, cell-based; conditions: time 10.0 day
[16] = target: MAP kinase-activated protein kinase 3 (Homo sapiens) (UniProt Q16644); test: Inhibition of human MAPKAPK3 expressed in bacterial expression system at 1000 nM by KINOMEscan assay relative to control
MAP kinase-activated protein kinase 3 (Homo sapiens), sequence (Q16644 whole entry, looked up): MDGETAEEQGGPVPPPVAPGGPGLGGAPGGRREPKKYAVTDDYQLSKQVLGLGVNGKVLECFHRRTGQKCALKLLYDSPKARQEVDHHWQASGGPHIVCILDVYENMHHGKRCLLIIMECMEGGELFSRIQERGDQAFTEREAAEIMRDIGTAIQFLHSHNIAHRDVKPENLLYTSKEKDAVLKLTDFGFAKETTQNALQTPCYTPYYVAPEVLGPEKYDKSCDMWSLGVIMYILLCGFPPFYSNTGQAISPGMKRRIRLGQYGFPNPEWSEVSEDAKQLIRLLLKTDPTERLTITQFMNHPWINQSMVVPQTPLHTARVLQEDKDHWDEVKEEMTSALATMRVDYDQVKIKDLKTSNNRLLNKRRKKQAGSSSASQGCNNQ

[17] = system: NCI-H1581; test: Cytotoxicity against human NCI-H1581 cells harboring FGF19/FGFR4 assessed as inhibition of cell growth
[18] = target: T4, Fibroblast growth factor receptor 4 (Homo sapiens, UniProt P22455); test: Inhibition of FGFR4 (unknown origin) using Tyr 04 peptide substrate measured after 2 hrs by FRET assay
T4 sequence (P22455 whole entry): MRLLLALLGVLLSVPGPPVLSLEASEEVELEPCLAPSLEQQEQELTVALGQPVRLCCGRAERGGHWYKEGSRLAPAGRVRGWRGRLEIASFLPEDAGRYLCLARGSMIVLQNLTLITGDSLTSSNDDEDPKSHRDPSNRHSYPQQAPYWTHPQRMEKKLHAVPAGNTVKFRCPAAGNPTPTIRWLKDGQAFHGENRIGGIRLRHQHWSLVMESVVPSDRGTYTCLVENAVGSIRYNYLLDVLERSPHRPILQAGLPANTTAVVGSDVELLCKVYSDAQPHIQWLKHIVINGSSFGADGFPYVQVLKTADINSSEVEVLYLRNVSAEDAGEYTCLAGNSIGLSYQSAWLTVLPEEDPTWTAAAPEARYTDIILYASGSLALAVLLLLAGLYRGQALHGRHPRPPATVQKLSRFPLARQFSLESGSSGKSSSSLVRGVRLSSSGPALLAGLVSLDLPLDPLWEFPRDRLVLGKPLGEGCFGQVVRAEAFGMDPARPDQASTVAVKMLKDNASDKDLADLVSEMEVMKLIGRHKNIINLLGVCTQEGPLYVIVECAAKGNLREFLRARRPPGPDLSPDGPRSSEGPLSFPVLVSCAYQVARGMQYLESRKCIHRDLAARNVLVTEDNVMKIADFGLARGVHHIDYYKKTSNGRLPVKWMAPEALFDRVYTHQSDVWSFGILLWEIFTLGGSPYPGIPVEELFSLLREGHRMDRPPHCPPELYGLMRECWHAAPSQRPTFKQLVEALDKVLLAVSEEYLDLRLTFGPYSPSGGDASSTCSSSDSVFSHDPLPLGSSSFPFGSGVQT

[19] = target: Fibroblast growth factor receptor 2 (Homo sapiens, UniProt P21802); test: Inhibition of FGFR2 (unknown origin) using Tyr 04 peptide substrate measured after 2 hrs by FRET assay
Fibroblast growth factor receptor 2, sequence (P21802 whole entry): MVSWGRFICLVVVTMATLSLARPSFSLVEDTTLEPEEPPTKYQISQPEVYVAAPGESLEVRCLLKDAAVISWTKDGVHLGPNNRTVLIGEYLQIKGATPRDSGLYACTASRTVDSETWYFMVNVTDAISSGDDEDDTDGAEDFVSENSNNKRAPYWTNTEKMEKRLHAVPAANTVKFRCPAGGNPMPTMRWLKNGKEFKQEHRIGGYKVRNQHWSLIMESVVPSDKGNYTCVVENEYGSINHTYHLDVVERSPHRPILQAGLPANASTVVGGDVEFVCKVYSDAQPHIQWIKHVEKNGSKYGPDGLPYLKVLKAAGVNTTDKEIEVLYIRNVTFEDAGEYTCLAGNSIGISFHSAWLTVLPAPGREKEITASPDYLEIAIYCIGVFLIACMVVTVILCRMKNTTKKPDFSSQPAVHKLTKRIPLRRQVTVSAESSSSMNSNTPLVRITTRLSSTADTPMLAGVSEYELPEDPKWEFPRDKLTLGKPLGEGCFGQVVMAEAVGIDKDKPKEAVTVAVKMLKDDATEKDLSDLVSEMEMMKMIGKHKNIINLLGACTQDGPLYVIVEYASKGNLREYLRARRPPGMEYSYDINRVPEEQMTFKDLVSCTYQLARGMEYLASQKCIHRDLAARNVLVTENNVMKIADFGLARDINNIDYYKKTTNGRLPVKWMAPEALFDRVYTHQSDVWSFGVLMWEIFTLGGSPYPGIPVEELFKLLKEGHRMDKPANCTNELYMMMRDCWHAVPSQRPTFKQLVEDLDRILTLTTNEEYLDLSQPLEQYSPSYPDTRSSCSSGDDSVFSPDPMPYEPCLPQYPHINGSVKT

[20] = system: Hep 3B2; test: Antitumor activity against human Hep 3B2.1-7 cells xenografted in mouse assessed as tumor growth inhibitions at 30 mg/kg, po BID administered for 12 days; assay type: functional; conditions: Hep3B, 288 h, time 12 day, read-out: TGI
[21] = target: Transient receptor potential cation channel subfamily M member 7 (Homo sapiens) (UniProt Q96QT4); test: Inhibition of human CHAK1 at 1000 nM by KINOMEscan assay relative to control
[22] = system: Fibroblast growth factor receptor 2 (Homo sapiens), P21802 [N549H]; test: Inhibition of human FGFR2 N549H mutant expressed in bacterial expression system at 1000 nM by KINOMEscan assay relative to control
Fibroblast growth factor receptor 2 (Homo sapiens), P21802 [N549H], sequence (P21802 whole entry N549H): as the sequence (P21802 whole entry) above, with N549H counted along it

[23] = system: NCI-H1581; test: Antiproliferative activity in human NCI-H1581 cells assessed as reduction of cell number measured after 72 hrs by CCK8 assay; assay type: functional, cell-based
[24] = target: Phosphatidylinositol 4-kinase alpha (Homo sapiens) (UniProt P42356); test: Inhibition of human PIK4 at 1000 nM by KINOMEscan assay relative to control
[25] = target: Platelet-derived growth factor receptor alpha (Homo sapiens) (UniProt P16234); test: Inhibition of human PDGFRA expressed in mammalian expression system at 1000 nM by KINOMEscan assay relative to control
[26] = system: BaF3; test: Inhibition of FGFR4 expressed in mouse BaF3-ETV6-FGFR4 cells assessed as inhibition of ERK phosphorylation by Western blot analysis; assay type: cell-based; conditions: dose 3.7-100 nM
[27] = system: BaF3; test: Inhibition of FGFR4 expressed in mouse BaF3-ETV6-FGFR4 cells assessed as inhibition of PLCgamma1 phosphorylation by Western blot analysis; assay type: cell-based; conditions: dose 3.7-100 nM
[28] = Cmax in Sprague-Dawley rat at 5 mg/kg, iv incubation upto 24 hrs by LC-MS/MS analysis; assay type: ADME, organism-based; parameters: route intravenous, dose 5 mg/kg, time <=24; conditions: in vivo
[29] = Toxicity in mouse assessed as induction of weight loss at 30 mg/kg, po BID administered for 12 days (reference value: < 5 %); assay type: organism-based; conditions: in vivo, 288 h, time 12 day
[30] = Half life in Sprague- Dawley rat at 25 mg/kg, po incubation upto 24 hrs by LC-MS/MS analysis; assay type: ADME, organism-based; conditions: in vivo
[31] = system: MDA-MB-453; test: Cytotoxicity against human MDA-MB-453 cells harboring FGF19/FGFR4 assessed as inhibition of cell growth
[32] = system: NCI-H1581; test: Inhibition of colony formation in human NCI-H1581 cells incubated for 10 days by crystal violet staining based assay; assay type: functional, cell-based; conditions: time 10.0 day
[33] = target: T4, Fibroblast growth factor receptor 4; test: Binding affinity to FGFR4 (unknown origin) assessed as dissociation constant by competition binding assay
[34] = AUC(0 to t) in Sprague-Dawley rat at 5 mg/kg, iv incubation upto 24 hrs by LC-MS/MS analysis; assay type: ADME, organism-based; parameters: route intravenous, dose 5 mg/kg, time <=24; conditions: in vivo
[35] = Toxicity in mouse assessed as mortality at 30 mg/kg, po BID administered for 12 days (reference value: < 5 %); assay type: organism-based; conditions: in vivo, 288 h, time 12 day
[36] = target: T3, Fibroblast growth factor receptor 3; test: Inhibition of human FGFR3 expressed in bacterial expression system at 1000 nM by KINOMEscan assay relative to control
[37] = Clearance in Sprague- Dawley rat at 5 mg/kg, iv incubation upto 24 hrs by LC-MS/MS analysis; assay type: ADME, organism-based; conditions: in vivo
[38] = system: Huh-7; test: Cytotoxicity against human Huh-7 cells harboring FGF19/FGFR4 assessed as inhibition of cell growth
[39] = target: Receptor-type tyrosine-protein kinase FLT3 (Homo sapiens) (UniProt P36888); test: Inhibition of human FLT3 expressed in bacterial expression system at 1000 nM by KINOMEscan assay relative to control

CC(C)Oc1cc(NC(=O)N2CCCc3cc(CN4CCN(C)CC4=O)c(C=O)nc32)ncc1C#Cc1cccnc1
inhibition [1]: Dose-Dependent Effect
inhibition [2]: -3%
Activity [3]: Active
inhibition [4]: 5%
AUC(0-t) at 24 h [5]: 39000 ng·h/mL
Cmax [6]: 8560 ng/mL
half-life [7]: 53.4 min
IC50 [8]: > 10 µM
inhibition [9]: 10%
IC50 [10]: 104 nM
inhibition [11]: -2%
bioavailability [12]: 51%
IC50 [13]: > 10 µM
inhibition [14]: -5%
Activity [15]: Active
inhibition [16]: 3%
IC50 [17]: > 3000 nM
IC50 [18]: 5.4 nM
IC50 [19]: > 10 µM
inhibition in vivo at 30 mg/kg [20]: 95.2%
inhibition [21]: 8%
inhibition [22]: 1%
Activity [23]: Active
inhibition [24]: 6%
inhibition [25]: 5%
inhibition [26]: Dose-Dependent Effect
inhibition [27]: Dose-Dependent Effect
Cmax [28]: 11100 ng/mL
Activity [29]: Non-Toxic
half-life [30]: 184 min
IC50 [31]: 140 nM
Activity [32]: Active
Kd [33]: 6.2 nM
AUC(0-t) at 24 h [34]: 15300 ng·h/mL
Activity [35]: Non-Toxic
inhibition [36]: 10%
clearance [37]: 6.15 mL/min/kg
IC50 [38]: 2.4 nM
inhibition [39]: 10%
